Reference: US6632921B1, “Seryl-lysyl-based peptide and peptidomimetic inhibitors of N-myristoyl transferase as anti-infective agents” (G. D Searle & Co, priority 1995, dated 2003)
In brackets after ≈: the same amount, converted by molar mass. Like-named read-outs stand apart in the source and are kept apart here. Non-standard residues stand in square brackets, D forms with d. Residues, ends and D or L forms follow the SMILES beside them. Cha = N[C@@H](CC1CCCCC1)C(=O)O; Aun = NCCCCCCCCCCC(=O)O

Assays:
[1] = target: T1, Candida albicans NMT (Candida albicans, UniProt P30418); test: NMT enzyme inhibition assay (radiochemical HPLC end-point), Candida NMT; assay type: biochemical; details: for IC50: Table V, read-out: IC50 caNMT
T1 construct: made in house; host or cells: E. coli
T1 sequence (P30418 1-451): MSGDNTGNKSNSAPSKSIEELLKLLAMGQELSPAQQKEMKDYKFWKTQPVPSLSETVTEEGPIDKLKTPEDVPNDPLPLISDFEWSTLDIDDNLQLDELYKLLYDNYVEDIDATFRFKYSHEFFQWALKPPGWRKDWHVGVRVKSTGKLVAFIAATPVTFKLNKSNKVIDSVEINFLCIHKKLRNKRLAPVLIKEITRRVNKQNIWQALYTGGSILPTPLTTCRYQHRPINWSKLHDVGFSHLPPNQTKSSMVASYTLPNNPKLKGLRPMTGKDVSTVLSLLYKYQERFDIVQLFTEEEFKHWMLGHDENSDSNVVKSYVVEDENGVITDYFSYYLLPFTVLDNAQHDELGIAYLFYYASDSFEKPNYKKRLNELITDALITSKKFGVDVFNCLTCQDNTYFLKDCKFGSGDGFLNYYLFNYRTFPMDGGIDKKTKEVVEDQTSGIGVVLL
Method: Recombinant Candida albicans and human NMTs were expressed and purified from E. coli using previously described protocols. [D. A. Towler et al, Proc. Natl. Acad. Sci. USA, 84, 2707-2712 (1987); R. C. Weigand et al, J. Biol. Chem., 267, 8591-8598 (1992); R. J. Duronio et al, Proc. Natl. Acad. Sci. USA, 89, 4129-4133 (1992)] The ability of compounds to inhibit Candida NMT enzymatic activity was assessed using a radiochemical HPLC end-point assay as described previously for Saccharomyces cerevisiae and human NMTs. [D. Towler et al, Proc. Natl. Acad. Sci. USA, 83, 2812-2816 (1986); W. J. Rocque et al, J. Biol. Chem., 268, 9964-9971 (1991)] The donor substrate [^3H]myristoyl-coenzyme A was enzymatically synthesized from [^3H]myristic acid (50 Ci/mmol, Amersham, Arlington Heights, Ill.) and coenzyme A (Fluka Chemical Corp., Ronkonkoma, N.Y.), and purified as described previously. [W. J. Rocque et al, J. Biol. Chem., 268, 9964-9971 (1991)] The peptide acceptor substrate GNAASARR-NH2 was prepared by solid-phase peptide synthesis using the t-Boc amino acid methodology, followed by HF treatment and reverse-phase HPLC purification. Inhibitor stock solutions were prepared at 22 mM in DMSO; the final concentration of DMSO in each assay was 0.5% (v/v). Inhibition assays were carried out by combining variable amounts of inhibitor or buffer with […] of [^3H]myristoyl-coenzyme A (1 μCi, 9.09 Ci/mmol) and 2.2 nmoles of GNAASARR-NH2 in a total volume of 60 μL of 0.2 M N-[2-hydroxy-ethyl]piperazine-N′-[2-ethanesulfonic acid], pH 7.4, 2 mM DL-dithiothreitol, 0.2 mM ethylene glycol-bis-(β-aminoethyl ether) N,N,N′,N′-tetraacetic acid, and initiating the reaction by the addition of 50 μL of a Candida NMT solution (7-12 ng/50 μL). Assays with human NMT were identical except that they used 60-75 ng/50 μL of enzyme solution and 0.22 nmoles of GNAASARR-NH2. The reaction was quenched after 10 minutes at 24° C. by the addition of ice-cold MeOH, and the reaction products were separated and measured using C4 reverse-phase HPLC (Vydac 214TP10415; Separations Group, Hesperia, Calif.) and in-line scintillation counting using a Radiomatic A250 (Packard Instruments, Downers Grove, Ill.) and Ecolite(+) (ICN Biomedical, Costa Mesa, Calif.) as the scintillant. Selectivity was determined by calculating the ratio of the IC50 against human NMT to the IC50 against C. albicans NMT.

[2] = system: Candida albicans, strain B311; test: Antifungal susceptibility testing, microdilution broth, pH 5.4/30° C./YNB; assay type: cell-based
Method: Antifungal Screens were set up initially against Candida albicans, strain B311, and Cryotococcus neoformans, strain L210425. Both pathogens, (originally from the stock culture collection, Medical mycology research center, Washington university-Barnes hospital), were obtained from Dr.Kobayashi, Prof.of infectious diseases, Washington University, St.Louis, Mo.
All cultures are maintained at 30° C. on Sabouraud's dextrose agar slants and subcultured at monthly intervals to fresh medium. All inocula for susceptibility testing are prepared in yeast nitogen base(YNB, Difco) broth.
A loopful of growth from Sabouraud dextrose agar slant is inoculated into 4 ml of YNB broth media and incubated at 30° C. overnight (18-24 hrs) with constant agitation (Gyratory Shaker, New Brunswick Scientific). Prior to setting up susceptibility testing, the organisms are counted in a hemocytometer, and diluted as needed into assay media.
1) (Assay at DH 5.4/30° C. Incubation/YNB Media).
Antifungal assays were carried out initially by a modification of the method published by Jones, et. al; (1), and communicated to Searle by Dr. Kobayashi, Washington University. [R. N. Jones et al, Manual of Clinical Microbiology, 4th ed., (1985)]
The antifungal susceptibility testing consists of a microdilution broth procedure performed in 96 well microtiter plates (Costar, cat#3799). Briefly, test compounds from a 20 mM stock solution in DMSO are diluted into sterile, deionized water (final DMSO concentration not exceeding 1%), to yield 2× the desired concentration (100 uM, 10 uM and 1 uM for an initial screen, or a selected concentration range in serial 2 fold dilutions for EC50 determination). One hundred microliters (100 ul) of each concentration is dispensed into triplicate wells of a 96 well microtiter plate. Appropriate dilutions of a suspension of C.albicans (1×10^6 cells/ml) in 2× YNB is distributed into each of the wells, including growth control wells containing no test compound as well as control wells with 0.5% DMSO. Amphotericin B at 0.05, 1 and 5 ug/ml is included in each assay plate as a positive control. The plates are incubated at 30° C. and cell growth is scored by reading the absorbance at 590 nm on an Elisa plate reader(Dynatech, MR.5000).

[3] = system: C. albicans 516; test: Antifungal susceptibility testing, pH 7.0/35° C., 1x10^3 cells/mL; assay type: cell-based, Candida albicans; details: Candida albicans, 516; pH 7.0/35° C./1x10^3 cells/mL, 48 hrs; read-out: EC50 - 48 HRS C.albicans (516)
Method: (§1) 2) Assay at pH 7.0/35° C. Incubation/(Candida Strains Only).
(§2) Based on several papers published during 1990-1993 regarding the standardization of testing procedures at multiple research centers, and the finding that, inoculum size, pH of media, and the temperature of incubation drastically affect the antifungal activity of several compounds, particularly in the Azole class of antifungals, an additional assay was configured at pH 7.0 for Candida albicans. [M. A. Pfaller et al, Antimicrobial Agents and Chemotherapy, 34, 1648-1654 (1990); F. C. Odds et al, Antimicrobial Agents and Chemotherapy, 36, 1727-1737 (1992); R. A. Cook et al, Antimicrobial Agents and Chemotherapy, 34, 1542-1545 (1990)]
(§3) The assay format is identical to the first one with the following modifications: C.albicans cells are diluted to 1×10^3 cells/ml into 2× buffered YNB (YNB buffered with 1.65 mM MOPS, pH 7.0, with the addition of 2% Dextrose and 0.08% casamino acids mixture, bio 101. inc,cat #10420-100). Incubation is carried out at 35° C. instead of 30° C., and cell growth is monitored at 590 nm at 24 and 48 hrs as described. All other aspects of the assay are identical. This assay was validated with amphotericin B, fluconazole, cilofungin (Ly-121019), Nikkomycin and terbinafine using the following Candida strains- (C.albicans, B311, C.parasilosis, C.tropicalis, C.lusitaniae, C.glabrata, and C. albicans 516)-Table II. All strains were from Dr. Kobayashi, Washington university.

[4] = system: C.glabrata; test: as above; assay type: cell-based; details: Nakaseomyces glabratus; pH 7.0/35° C./1x10^3 cells/mL, 48 hrs; read-out: EC50 - 48 HRS C.glab.
Method: as §1, §2, §3

[5] = system: C.parasilosis; test: as above; assay type: cell-based; details: pH 7.0/35° C./1x10^3 cells/mL, 48 hrs; read-out: EC50 - 48 HRS C.para
Method: as §1, §2, §3

[6] = system: C.tropicalis; test: as above; assay type: cell-based; details: Candida tropicalis; pH 7.0/35° C./1x10^3 cells/mL, 48 hrs; read-out: EC50 - 48 HRS C.trop.
Method: as §1, §2, §3

[7] = system: C.lusitaniae; test: as above; assay type: cell-based; details: Clavispora lusitaniae; pH 7.0/35° C./1x10^3 cells/mL, 48 hrs; read-out: EC50 - 48 HRS C.lusi.
Method: as §1, §2, §3

[8] = system: C.albicans, B311; test: as above; assay type: cell-based; details: Candida albicans, B311; pH 7.0/35° C./1x10^3 cells/mL, 48 hrs; read-out: EC50 - 48 HRS C.albicans
Method: as §1, §2, §3

[9] = B311, 24 hours, Table V (values agree with pH 5.4 assay), read-out: caEC50 24 hours
[10] = read-out: % inhibition of caNMT
[11] = B311, 24 h, pH 5.4, read-out: caEC50 24 hours

Row | EC50 [2, 9] [µM] | SMILES | IC50 [1] [µM] | EC50 [2, 11] [µM] | inhibition at 10 µM [1, 10] [%] | further results
1 | > 100 | Cc1nccn1CCCCc1ccc(CC(=O)N[C@@H](CO)C(=O)N[C@@H](CCCCN)C(=O)NC(CC(=O)O)C2CCCCC2)cc1 (mixture of isomers) [Example 9, Lysinamide, N-[1-Cyclohexyl-2-carboxyethyl]-N^2-[N-[[4-[4-(2-methyl-1H-imidazol-1-yl)butyl]phenyl]acetyl]-L-seryl]-, ±, bis-trifluoroacetate] | 6 |  |  | 
2 | > 100 | Cc1nccn1CCCCc1ccc(CC(=O)N[C@@H](CO)C(=O)N[C@@H](CCCCN)C(=O)NC(CC(=O)O)C2CCCCCCC2)cc1 (mixture of isomers) [Example 10, Lysinamide, N-[1-Cyclooctyl-2-carboxyethyl]-N^2-[N-[[4-[4-(2-methyl-1H-imidazol-1-yl)butyl]phenyl]acetyl]-L-seryl]-, ±, bis-trifluoroacetate] |  |  |  | inhibition at 10 µM ([1]; @ 10 μM, read-out: % inhibition of caNMT): 40%
3 |  | C[C@@H]1[C@H](O)[C@@H](C)/C=C/C=C/C=C/C=C/C=C/C=C/C=C/[C@H](O[C@@H]2O[C@H](C)[C@@H](O)[C@H](N)[C@@H]2O)C[C@@H]2O[C@](O)(C[C@@H](O)C[C@@H](O)[C@H](O)CC[C@@H](O)C[C@@H](O)CC(=O)O[C@H]1C)C[C@H](O)[C@H]2C(=O)O [Amphotericin, amphotericin B] |  |  |  | EC50 [3]: 0.14 µg/mL (≈ 0.152 µM); EC50 [4]: 0.47 µg/mL (≈ 0.509 µM); EC50 [5]: 0.31 µg/mL (≈ 0.335 µM); EC50 [6]: 0.44 µg/mL (≈ 0.476 µM); EC50 [7]: 0.42 µg/mL (≈ 0.455 µM); EC50 [8]: 0.11 µg/mL (≈ 0.119 µM)
4 |  | NCCCCCCCCCCC(=O)N[C@@H](CO)C(=O)N[C@@H](CCCCN)C(=O)N[C@@H](CC1CCCCC1)C(=O)O [Example 3, L-Alanine, 3-cyclohexyl-N-[[(11-amino-undecanoyl)-L-seryl]-L-lysyl]-, bis-trifluoroacetate] (H-[Aun]SK[Cha]-OH) |  | 33 |  | inhibition at 11 µM [1, 10]: 80%
5 |  | CC(C)C[C@H](NC(=O)[C@H](CCCCN)NC(=O)[C@H](CO)NC(=O)CCCCCCCCCCN)C(=O)O [Example 4, L-leucine, N-[[(11-amino-undecanoyl)-L-seryl]-L-lysyl]-, bis-trifluoroacetate] (H-[Aun]SKL-OH) | 6.7 | 63 |  | 
6 |  | Cc1nccn1CCCCc1ccc(CC(=O)N[C@@H](CO)C(=O)N[C@@H](CCCCN)C(=O)N[C@@H](C)C(=O)O)cc1 [Example 5, L-alanine, N-[N^2-[N-[[4-[4-(2-methyl-1H-imidazol-1-yl)butyl]phenyl]acetyl]-L-seryl]-L-lysyl]-, bis-trifluoroacetate] |  | 68 | 27 | 
7 |  | Cc1nccn1CCCCc1ccc(CC(=O)N[C@@H](CO)C(=O)N[C@@H](CCCCN)C(=O)N[C@@H](Cc2ccccc2)C(=O)O)cc1 [Example 6, L-Alanine, 3-phenyl-N-[N^2-[N-[[4-[4-(2-methyl-1H-imidazol-1-yl)butyl]phenyl]acetyl]-L-seryl]-L-lysyl]-, bis-trifluoroacetate] |  | 80 | 36 | 
8 | 97 | CC[C@H](C)[C@H](NC(=O)[C@H](CCCCN)NC(=O)[C@H](CO)NC(=O)Cc1ccc(CCCCn2ccnc2C)cc1)C(=O)O [Example 7, L-iso-leucine, N-[N^2-[N-[[4-[4-(2-methyl-1H-imidazol-1-yl)butyl]phenyl]acetyl]-L-seryl]-L-lysyl]-, bis-trifluoroacetate] | 100 |  |  | 
9 |  | Cc1nccn1CCCCc1ccc(CC(=O)N[C@@H](CO)C(=O)N[C@@H](CCCCN)C(=O)N[C@@H](CC(C)C)C(=O)O)cc1 [Example 8, L-Leucine, N-[N^2-[N-[[4-[4-(2-Methyl-1H-imidazol-1-yl)butyl]phenyl]acetyl]-L-seryl]-L-lysyl]-, bis-trifluoroacetate] |  | > 100 | 78 | 
10 |  | Cc1nccn1CCCCc1ccc(CC(=O)N[C@@H](CO)C(=O)N[C@@H](CCCCN)C(=O)N[C@H](CC2CCCCC2)C(=O)O)cc1 [Example 11, D-alanine, 3-cyclohexyl-N-[N^2-[N-[[4-[4-(2-methyl-1H-imidazol-1-yl)butyl]phenyl]acetyl]-L-seryl]-L-lysyl]-, bis-trifluoroacetate] | 18 | > 100 |  | 
